Measured values as given in PubChem BioAssay AID328 (DTP/NCI, 2004).
Where “and” joins values, the source holds several entries; their conditions need not be identical. Identical values can stand only once. Toxic doses and inconclusive results are not listed.

Test system: BDF1 mice, P388 leukemia ip, median survival T/C
Assay: NCI In Vivo Anticancer Drug Screen. Data for tumor model P388 Leukemia (intraperitoneal) in B6D2F1 (BDF1) mice
Conditions: endpoint: median survival time, higher = longer survival
Procedure, shortened: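 Steps: implant the tumour, treat one group with compound and another with vehicle, record survival, then divide treated by control.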

[1] = dose: 25.0 mg/kg/injection, schedule: Q04DX003 (ip), vehicle: saline
[2] = dose: 50.0 mg/kg/injection, schedule: Q04DX003 (ip), vehicle: saline
[3] = dose: 100.0 mg/kg/injection, schedule: Q04DX003 (ip), vehicle: saline
[4] = dose: 100.0 mg/kg/injection, schedule: Q04DX003 (ip), vehicle: water
[5] = dose: 50.0 mg/kg/injection, schedule: Q01DX009 (ip), vehicle: saline with Tween-80
[6] = dose: 100.0 mg/kg/injection, schedule: Q01DX009 (ip), vehicle: saline with Tween-80
[7] = dose: 200.0 mg/kg/injection, schedule: Q01DX009 (ip), vehicle: saline with Tween-80
[8] = dose: 400.0 mg/kg/injection, schedule: Q01DX009 (ip), vehicle: saline with Tween-80
[9] = dose: 25.0 mg/kg/injection, schedule: Q04DX003 (ip), vehicle: saline with Tween-80
[10] = dose: 50.0 mg/kg/injection, schedule: Q04DX003 (ip), vehicle: saline with Tween-80
[11] = dose: 100.0 mg/kg/injection, schedule: Q04DX003 (ip), vehicle: saline with Tween-80
[12] = dose: 2.0 mg/kg/injection, schedule: Q01DX009 (ip), vehicle: saline
[13] = dose: 4.0 mg/kg/injection, schedule: Q01DX009 (ip), vehicle: saline

CCN(CC)c1ccc(C2NC(=O)c3ccccc3N2)cc1 (centres undefined)
T/C (dose: 25.0 mg/kg/injection, schedule: Q01DX009 (ip), vehicle: Klucel (hydroxypropylcellulose) (HPC)): 110 % of control | T/C (dose: 50.0 mg/kg/injection, schedule: Q01DX009 (ip), vehicle: Klucel (hydroxypropylcellulose) (HPC)): 120 % of control | T/C (dose: 100.0 mg/kg/injection, schedule: Q01DX009 (ip), vehicle: Klucel (hydroxypropylcellulose) (HPC)): 95 % of control

COc1cc2cc[n+](C)cc2cc1OC
T/C (dose: 6.25 mg/kg/injection, schedule: Q04DX003 (ip), vehicle: water): 94 % of control | T/C (dose: 12.5 mg/kg/injection, schedule: Q04DX003 (ip), vehicle: water): 94 % of control | T/C [1]: 100 % of control | T/C (dose: 25.0 mg/kg/injection, schedule: Q04DX003 (ip), vehicle: water): 107 % of control | T/C (dose: 50.0 mg/kg/injection, schedule: Q01DX009 (ip), vehicle: saline): 100 % of control | T/C [2]: 86 % of control and 104 % of control | T/C (dose: 50.0 mg/kg/injection, schedule: Q04DX003 (ip), vehicle: water): 111 % of control | T/C (dose: 100.0 mg/kg/injection, schedule: Q01DX009 (ip), vehicle: saline): 100 % of control | T/C [3]: 88 % of control and 90 % of control and 113 % of control | T/C [4]: 111 % of control

CN=S(=O)(OCCOCCOS(=O)(=NC)c1ccc(C)cc1)c1ccc(C)cc1 (centres undefined)
T/C [5]: 111 % of control | T/C [6]: 108 % of control | T/C [7]: 114 % of control

CNC(=O)C(C)C1C(=O)/C(=C(O)/C=C\C(C)=C\C(C)C2OC3(C)OC(C=CC34CO4)C2C)C(=O)N1C1CCC(O)C(C)O1 (centres undefined)
T/C [6]: 109 % of control | T/C [7]: 100 % of control | T/C [8]: 109 % of control

c1ccc(CC2NCCc3ccccc32)cc1 (centres undefined)
T/C (dose: 25.0 mg/kg/injection, schedule: Q01DX009 (ip), vehicle: saline with Tween-80): 96 % of control | T/C [9]: 115 % of control | T/C [5]: 111 % of control | T/C [10]: 105 % of control | T/C [6]: 107 % of control | T/C [11]: 105 % of control

CC[C@](O)(C(=O)O)c1cc2n(c(=O)c1CO)Cc1cc3ccccc3nc1-2
T/C (dose: 1.0 mg/kg/injection, schedule: Q01DX009 (ip), vehicle: water): 112 % of control | T/C [12]: 156 % of control | T/C (dose: 2.0 mg/kg/injection, schedule: Q01DX009 (ip), vehicle: water): 150 % of control | T/C (dose: 3.13 mg/kg/injection, schedule: Q04DX002 (ip), vehicle: saline): 116 % of control | T/C [13]: 171 % of control | T/C (dose: 12.5 mg/kg/injection, schedule: Q04DX002 (ip), vehicle: saline): 161 % of control | T/C (dose: 12.5 mg/kg/injection, schedule: Q04DX009 (ip), vehicle: saline): 192 % of control | T/C (dose: 14.4 mg/kg/injection, schedule: Q04DX003 (ip), vehicle: saline): 175 % of control | T/C (dose: 18.0 mg/kg/injection, schedule: Q04DX003 (ip), vehicle: saline): 175 % of control | T/C (dose: 24.0 mg/kg/injection, schedule: Q04DX003 (ip), vehicle: saline): 214 % of control | T/C (dose: 25.0 mg/kg/injection, schedule: Q04DX002 (ip), vehicle: saline): 199 % of control | T/C (dose: 25.0 mg/kg/injection, schedule: Q04DX009 (ip), vehicle: saline): 192 % of control | T/C (dose: 30.0 mg/kg/injection, schedule: Q04DX003 (ip), vehicle: saline): 201 % of control | T/C (dose: 33.0 mg/kg/injection, schedule: Q04DX003 (ip), vehicle: saline): 168 % of control | T/C (dose: 40.0 mg/kg/injection, schedule: Q04DX003 (ip), vehicle: saline): 224 % of control | T/C (dose: 40.0 mg/kg/injection, schedule: Q04DX003 (ip), vehicle: water): 104 % of control | T/C [2]: 172 % of control | T/C (dose: 66.7 mg/kg/injection, schedule: Q04DX003 (ip), vehicle: saline): 90 % of control | T/C (dose: 75.0 mg/kg/injection, schedule: Q04DX003 (ip), vehicle: saline): 200 % of control | T/C (dose: 100.0 mg/kg/injection, schedule: Q01DX001 (ip), vehicle: saline): 172 % of control | T/C (dose: 150.0 mg/kg/injection, schedule: Q01DX001 (ip), vehicle: saline): 43 % of control | T/C (dose: 175.0 mg/kg/injection, schedule: Q01DX001 (ip), vehicle: saline): 90 % of control

CS(=O)CC(O)(c1ccccc1)c1ccccn1 (centres undefined)
T/C [5]: 103 % of control | T/C [6]: 110 % of control | T/C [7]: 100 % of control

CCCCCCCCCCCCCC[S+](C)C
T/C (dose: 12.5 mg/kg/injection, schedule: Q01DX009 (ip), vehicle: saline): 118 % of control | T/C (dose: 25.0 mg/kg/injection, schedule: Q01DX009 (ip), vehicle: saline): 100 % of control | T/C [1]: 100 % of control | T/C [2]: 104 % of control

CNC(=O)OCc1c(-c2ccccc2)nc2sccn12
T/C (dose: 12.5 mg/kg/injection, schedule: Q01DX001 (ip), vehicle: Klucel (hydroxypropylcellulose) (HPC)): 109 % of control | T/C (dose: 25.0 mg/kg/injection, schedule: Q01DX001 (ip), vehicle: Klucel (hydroxypropylcellulose) (HPC)): 113 % of control

NC1=NS(=O)(=O)N=C(N)C1=NNc1ccccc1
T/C [5]: 92 % of control | T/C [6]: 99 % of control | T/C [7]: 103 % of control

COB(CCCCB(OC)OC)OC
T/C (dose: 100.0 mg/kg/injection, schedule: Q04DX003 (ip), vehicle: saline sonified): 90 % of control | T/C (dose: 200.0 mg/kg/injection, schedule: Q04DX003 (ip), vehicle: saline sonified): 86 % of control | T/C (dose: 400.0 mg/kg/injection, schedule: Q04DX003 (ip), vehicle: saline sonified): 100 % of control

CCN(CC)CCCC(C)NC(=O)c1cc(=O)[nH]c(=O)[nH]1 (centres undefined)
T/C (dose: 25.0 mg/kg/injection, schedule: Q01DX009 (ip), vehicle: water): 103 % of control | T/C (dose: 50.0 mg/kg/injection, schedule: Q01DX009 (ip), vehicle: water): 106 % of control | T/C (dose: 100.0 mg/kg/injection, schedule: Q01DX009 (ip), vehicle: water): 100 % of control | T/C [4]: 100 % of control | T/C (dose: 200.0 mg/kg/injection, schedule: Q04DX003 (ip), vehicle: water): 98 % of control

CCOC(=O)CCSc1ccccc1
T/C [9]: 98 % of control | T/C [10]: 95 % of control

C[C@]12CC[C@H]3[C@@H](CCC4=CC(=O)CC[C@@H]43)[C@@H]1CC[C@@H]2OC(=O)CCc1ccccc1
T/C [6]: 100 % of control | T/C [11]: 86 % of control | T/C [7]: 100 % of control | T/C [8]: 90 % of control | T/C (dose: 400.0 mg/kg/injection, schedule: Q04DX003 (ip), vehicle: saline with Tween-80): 86 % of control

CC(CCl)N(CCCl)Cc1cccc(Nc2ncnc3nc[nH]c23)c1 (centres undefined)
T/C (dose: 0.8 mg/kg/injection, schedule: Q01DX009 (ip), vehicle: saline): 152 % of control | T/C (dose: 1.5 mg/kg/injection, schedule: Q01DX009 (ip), vehicle: saline): 154 % of control | T/C [12]: 164 % of control | T/C (dose: 2.5 mg/kg/injection, schedule: Q01DX009 (ip), vehicle: saline): 185 % of control | T/C (dose: 3.0 mg/kg/injection, schedule: Q01DX009 (ip), vehicle: saline): 160 % of control | T/C (dose: 5.0 mg/kg/injection, schedule: Q01DX009 (ip), vehicle: saline): 175 % of control | T/C (dose: 10.0 mg/kg/injection, schedule: Q01DX009 (ip), vehicle: saline): 180 % of control | T/C (dose: 10.0 mg/kg/injection, schedule: Q04DX003 (ip), vehicle: saline): 86 % of control

C[n+]1ccc(/C=N/O)cc1
T/C [1]: 105 % of control | T/C [2]: 103 % of control | T/C [3]: 98 % of control | T/C (dose: 200.0 mg/kg/injection, schedule: Q04DX003 (ip), vehicle: saline): 89 % of control and 100 % of control | T/C (dose: 400.0 mg/kg/injection, schedule: Q04DX003 (ip), vehicle: saline): 86 % of control

CC1(C)N=C(N)N=C(N)N1c1cccc(CCCCc2ccc(S(=O)(=O)F)cc2Cl)c1
T/C (dose: 3.13 mg/kg/injection, schedule: Q01DX009 (ip), vehicle: saline sonified): 109 % of control | T/C [13]: 116 % of control | T/C (dose: 4.0 mg/kg/injection, schedule: Q04DX003 (ip), vehicle: saline with Tween-80): 100 % of control | T/C (dose: 6.0 mg/kg/injection, schedule: Q04DX003 (ip), vehicle: saline with Tween-80): 113 % of control | T/C (dose: 6.25 mg/kg/injection, schedule: Q01DX009 (ip), vehicle: saline): 116 % of control | T/C (dose: 9.0 mg/kg/injection, schedule: Q04DX003 (ip), vehicle: saline with Tween-80): 118 % of control | T/C (dose: 9.4 mg/kg/injection, schedule: Q01DX009 (ip), vehicle: saline): 116 % of control
